In patent US6596477B1, “Treatment and prevention of immunodeficiency virus infection by administration of non-pyrogenic derivatives of lipid A” (University of Maryland Biotechnology Institute, priority 1998, dated 2003):

What was measured:
[1] = test system: human PBMCs; assay: β chemokine (MIP-1α, MIP-1β, RANTES) secretion from human PBMCs, dose and time course, capture ELISA; format: cell-based
[2] = test system: HIV-1; conditions: alone; cited from earlier work
[3] = test system: mice; conditions: cited from earlier work
[4] = test system: mice; conditions: cited from earlier work; remark: listed apart in the source
[5] = test system: human PBMCs; assay: LPS antagonist test: TNFα from human PBMCs stimulated with W3110 LPS mixed with antagonist; format: cell-based; conditions: 1 μg/ml mixed with W3110 LPS 10 ng/ml; 8 hr
Description: Quantitation of TNFα, IL-1β, IL-6, MIP-1α and MIP-1β in these culture supernatants was achieved by capture ELISA (R&D Systems).
W3110 LPS (also cultured at 37° C.) from 1 ng/ml to 100 ng/ml alone and W3110 LPS (10 ng/ml) mixed with synthetic lipid IVA (1 μg/ml) were used as controls.

[6] = test system: HIV-1BAL; assay: HIV-1BAL replication (p24 ELISA) in human PBMC-derived monocytes pretreated 24 hours; format: cell-based; conditions: 1000, 100 and 10 ng/ml for 24 hours; 19 days after infection; FIG. 5
Description: To investigate the utility of the aforementioned findings, we investigated whether commercially available synthetic lipid IVA (ICN Inc.) suppressed the replication of HIV-1BAL in human PBMC-derived monocytes. Therefore, PBMCs were obtained as outlined in Section 6, see above, and placed into 12 well culture flat-bottom plate and incubated in CM (see example 1) for 12 days at 37° C. in 5% Co2. Non-adherent cells were removed and the cells were given fresh media every 2 days. After 6 days, the adherent PBMCs were treated with synthetic lipid IVA at 1000 ng/ml, 100 ng/ml and 10 ng/ml for 24 hours. The treated cells were subsequently infected with 0.200 ng of HIV-1BAL (Cocchi et al, supra) for 2 hours, washed twice and incubated for a further 19 days. Culture supernatants were then collected and the level of p24 in these supernatants was measured by ELISA (R&D Systems).
PBMC-derived monocytes were obtained as outlined in Section 8, see above. […] The treated cells were subsequently infected with 0.200 ng of HIV-1BAL (Cocchi et al., supra) for 2 hours, washed twice and incubated for a further 19 days. Culture supernatants were then collected and the level of p24 in these supernatants was measured by ELISA (R&D Systems).

[7] = test system: human PBMCs; assay: human PBMC activation assay: proinflammatory cytokines (TNFα, IL-1β, IL-6) in supernatants by capture ELISA; format: cell-based; conditions: 1 μg/ml; 8 hr
Description: 50 ml of whole blood is mixed with an equal volume of RPMI (Life Technologies) and PBMCs are isolated by density gradient using lymphocyte separation medium according to the manufacturer's directions (Organon). The PBMCs are washed twice with RPMI then resuspended in 6 ml of ice cold sterile water and placed on ice for 30 sec to lyse the erythrocytes. The osmolarity is adjusted by adding 2 ml of ice cold 3.5% (w/v) NaCl; the PBMCs are harvested by centrifugation, washed with RPMI and resuspended in complete medium (CM; RPMI containing pyruvate, glutamine, PenStrep, and 10% endotoxin-free human AB serum (Life Technologies) at a density of 6×10^6 PBMCs/ml. CM containing the preparations to be assayed are placed into duplicate wells of a 96-well flat bottom culture late (Costar) at double the target final concentration. An equal volume of CM containing the PBMCs then is added to these wells and the culture plates are incubated at 37° C. in 5% CO2 for 8 hr. The supernatants are then removed and stored at 70° C. Quantitation of TNFα, IL-1β, IL-6, MIP-1α, MIP-1β and RANTES in these culture supernatants is achieved by capture ELISA (R&D Systems).

[8] = test system: HIV-1; conditions: AIDS patients; cited from earlier work

## CCCCCC/C=C/CCCCCC(=O)O[C@H](CCCCCCCCCCC)CC(=O)NC1C(OCC2OC(OP(=O)(O)O)C(NC(=O)CC(=O)CCCCCCCCCCC)C(OC(=O)C[C@H](O)CCCCCCC)C2O)OC(CO)C(OP(=O)(O)O)C1OC(=O)C[C@H](O)CCCCCCC (stereo partly drawn) [RsDPLA, R. sphaeroides diphosphoryl lipid A]
[1]; FIG. 3
  level of RANTES after stimulation: not significantly elevated
[1]; supernatants at 8, 16, 24, 48 hr, FIG. 3
  time of peak production of MIP-1α and MIP-1β after stimulation: 24 h
[1]; various doses, FIG. 2
  MIP-1α secretion: stimulated the secretion of MIP-1α and MIP-1β in a dose-dependent manner
  MIP-1β secretion: stimulated the secretion of MIP-1α and MIP-1β in a dose-dependent manner

## Cc1cn([C@H]2C[C@H](N=[N+]=[N-])[C@@H](CO)O2)c(=O)[nH]c1=O [AZT, 3′-azido-2′,3′-dideoxythymidine]
[2]
  effect on viral load: about 1 log reduction

## 2,3-diacyl-glucosamine-1-phosphate [lipid X]
[3]
  pyrogenicity / toxicity in mice: non-pyrogenic in mice

## R. sphaeroides lipid A [RSLA]
[4]
  LPS induced lethality: prevents LPS induced lethality in mice

## CCCCCCCCCCC[C@@H](O)CC(=O)N[C@H]1[C@H](OC[C@H]2O[C@H](OP(=O)(O)O)[C@H](NC(=O)C[C@H](O)CCCCCCCCCCC)[C@@H](OC(=O)C[C@H](O)CCCCCCCCCCC)[C@@H]2O)O[C@H](CO)[C@@H](OP(=O)(O)O)[C@@H]1OC(=O)C[C@H](O)CCCCCCCCCCC [Lipid IVA]
[5]
  TNFα: <30 pg/mL
[3]
  pyrogenicity / toxicity in mice: displays similar toxicity of that of lipid A in mice
[6]
  replication of HIV-1BAL (p24) in PBMC-derived monocytes: suppresses the replication of HIV-1^BAL in a dose-dependent manner
[1]
  induction of β chemokines: without Inducing Measurable Levels of β Chemokines
[7]
  IL-1β in human PBMC culture supernatants after stimulation with LPS: 13 ± 1 pg/mL
  IL-6 in human PBMC culture supernatants after stimulation with LPS: 7581 ± 20 pg/mL

## CC(C)c1nc(CN(C)C(=O)N[C@H](C(=O)N[C@@H](Cc2ccccc2)C[C@H](O)[C@H](Cc2ccccc2)NC(=O)OCc2cncs2)C(C)C)cs1 [ABT-538]
[8]
  CD4 lymphocyte counts: CD4 lymphocyte counts to rise substantially
  plasma HIV-1 levels: causes plasma HIV-1 levels to decrease exponentially
